Results from patent US11013748B2, “Budesonide prodrug” (University of Nizwa, priority 2019, dated 2021).
In brackets after ≈: the same amount, converted by molar mass.

Legend:
[1] = Solubility studies of Bu and BuP in buffer media; type: physicochemical; conditions: thermodynamic from solid
Procedure: Solubility studies of the pure Bu and prepared BuP were determined (n=6) by making saturated solutions of HCl buffer, phthalate buffer, phosphate buffer of pH 1.2, 4.0, 6.8 (with and without 10% w/v rat fecal content), and 7.4 respectively. The solutions, kept separately in a conical flask, were subjected to ultrasonic waves in an ultrasonic bath (Sonorex, Bandelin Electronic, Germany) for 30 minutes. Fiber optic probes were inserted at 0 and 30 minutes, and readings taken at 232 nm for Bu and 340 nm for BuP using the fiber optics system

[2] = Partition coefficient, Hansch method (n-octanol/buffer); type: physicochemical
Procedure: The Hansch method was used to determine the partition coefficient between the n-octanol and phosphate buffer (both 10 mL) system. Different pH systems of 1.2, 4.0, 6.8, and 7.4, and n-octanol and double distilled water (both 10 mL, pH 5.8) were prepared. The buffers, n-octanol, and double distilled water were added to a separating funnel. The phases were shaken for 60 minutes. to attain saturation. Ten milligrams of Bu and BuP were added to respective separators and were given 30 minutes of shaking for the drug to achieve sufficient distribution in both the phases. The separators were kept still for 5 minutes, and then the phases were separated. The phases were suitably diluted and analyzed (n=6) using the fiber optics with the UV detector set at 232 nm and 340 nm for Bu and BuP, respectively.

[3] = system: colitis in rats; conditions: literature; cited from earlier work

solubility at 0 min ([1]; aqueous buffer, Phosphate buffer, pH 6.8) [µg/mL] | solubility at 30 min ([1]; aqueous buffer, Phosphate buffer, pH 6.8, 30 min) [µg/mL] | solubility at 0 min ([1]; aqueous buffer, Phosphate buffer, pH 7.4) [µg/mL] | solubility at 30 min ([1]; aqueous buffer, Phosphate buffer, pH 7.4, 30 min) [µg/mL] | solubility at 0 min ([1]; aqueous buffer, Phthalate buffer, pH 4.0) [µg/mL] | solubility at 30 min ([1]; aqueous buffer, Phthalate buffer, pH 4.0, 30 min) [µg/mL] | solubility at 0 min ([1]; phosphate buffer with 10% w/v rat fecal content, plasma or biological fluid, Phosphate buffer, pH 6.8 + rat fecal content) [µg/mL] | solubility at 30 min ([1]; phosphate buffer with 10% w/v rat fecal content, plasma or biological fluid, Phosphate buffer, pH 6.8 + rat fecal content, 30 min) [µg/mL] | solubility at 0 min ([1]; simulated gastric fluid, HCl buffer, pH 1.2) [µg/mL] | solubility at 30 min ([1]; simulated gastric fluid, HCl buffer, pH 1.2, 30 min ultrasonic bath) [µg/mL] | solubility at 0 min ([1]; Double distilled water, pH 5.8) [µg/mL] | solubility at 30 min ([1]; Double distilled water, pH 5.8, 30 min) [µg/mL] | logP ([2]; n-octanol / HCl buffer, pH 1.2) | logP ([2]; n-octanol / double distilled water, pH 5.8) | logP ([2]; n-octanol / phosphate buffer, pH 6.8) | logP ([2]; n-octanol / phosphate buffer, pH 7.4) | logP ([2]; n-octanol / phthalate buffer, pH 4.0) | Compound | effect on colitis in rats [3]
187 ± 1.98 (≈ 435 µM) | 356.9 ± 0.99 (≈ 829 µM) | 231 ± 2.12 (≈ 537 µM) | 476.1 ± 1.99 (≈ 1110 µM) | 68.2 ± 0.98 (≈ 158 µM) | 148 ± 1.32 (≈ 344 µM) | 187.1 ± 0.89 | 356.9 ± 1.76 | 25.1 ± 1.43 (≈ 58.3 µM) | 88.12 ± 0.67 (≈ 205 µM) | 121 ± 1.26 (≈ 281 µM) | 209 ± 2.13 (≈ 486 µM) | 3.12 ± 0.12 | 2.87 ± 1.05 | 2.51 ± 0.36 | 2.13 ± 1.09 | 3.01 ± 0.54 | CCCC1O[C@@H]2C[C@H]3[C@@H]4CCC5=CC(=O)C=C[C@]5(C)[C@H]4[C@@H](O)C[C@]3(C)[C@]2(C(=O)CO)O1 (stereo partly drawn) [Bu, budesonide] | 
 |  |  |  |  |  |  |  |  |  |  |  |  |  |  |  |  | CCCC1OC2CC3C4CCC5=CC(=O)C=CC5(C)C4C(O)CC3(C)C2(C(=O)COC2OC(C(=O)O)C(O)C(O)C2O)O1 [budesonide-beta-D-glucuronide] | accelerate the treatment of colitis in rats
